{"source": "patent US10577349B2", "about": "(Sanford Burnham Prebys Medical Discovery Institute, priority 2015, dated 2020)", "system": "A375 tumors", "test": "A375 xenograft in nude mice", "format": "in vivo", "description": "All animal studies were conducted in the SBMRI Animal Facility in accordance with the Institutional Animal Care and Use Committee guidelines. Six-week-old female nu/nu mice were purchased Harlan Laboratories (Indianapolis, Ind.) and allowed to acclimatize for 1 week. A375 cells (1×10^6, suspended in 200 μL sterile PBS) were injected into subcutaneous flank tissue. When the xenograft size reached ˜250 mm^3, mice were sorted into different groups. For PLX4720 and Compound 38 combination experiments, mice were either fed PLX4720-containing chow alone (AIN76A Roden Diet with 417 mg PLX4720/kg from Open Source Diets) for the control group or PLX4 720-containing chow plus an IP injection of 1 mg/kg Compound 38 twice a week. For MEKi plus Compound 38 experiments, PD0325901 at 20 mg/kg (formulated in 0.5% hydroxypropyl methylcellulose plus 0.2% Tween-80) was administered by oral gavage twice a week (Monday and Thursday) for the control group, or PD035901 plus IP injection of 1 mg/kg Compound 38 was administered twice a week (Tuesday and Friday). Mice were maintained in a pathogen-free environment with free access to food. Body weight and tumor volume were measured twice a week. Tumor size was measured with linear calipers and calculated using the formula: ([length in millimeters×(width in millimeters)2]/2). Mice were sacrificed after 4 weeks and tumors were fixed in Z-Fix (Anatech, Battle Creek, Mich.) and embedded in paraffin for immunohistochemistry.\nA375 human melanomacells were injected subcutaneously (1×10^6) into the flank of nude mice and allowed to form established tumors. Once tumors reached approximately 250 mm3, mice were randomly grouped and subjected to the indicated treatments [chow containing PLX4720 (417 mg/kg) and/or Compound 38 (1 mg/kg, 2 times per week intraperitoneally)]. Tumor size was measured at the indicated time points. The experiment was repeated twice. […] When tumors were allowed to reach 500 mm^3 before initiating treatment, 5 of 7 […] mice subjected to BRAFi treatment alone relapsed as drug-resistant tumors (4/5 within 4-6 weeks), whereas only 3 of 6 (50%) subjected to combination treatment developed resistance, albeit more slowly (2/3 after 8 weeks; FIG. 22). […] Proteins prepared at the indicated times from A375 tumors that were subjected in vivo to treatment with Compound 38 were incubated with m^7GTP-beads to capture the eIF4F complex. Shown is time-dependent inhibition of eIF4G1 binding to eIF4E in vivo, concomitant with increased binding of inhibitory 4E-BP1 to eIF4E."}
{"molecule": "O=C(/C=C/c1cncc(F)c1)c1c(-c2ccccc2)c2cc(Cl)ccc2[nH]c1=O", "note": "[Compound 38, 6-Chloro-3-[3-(5-fluoro-pyridin-3-yl)-acryloyl]-4-phenyl-1H-quinolin-2-one]", "values": [{"measurement": "effect on the eIF4F complex in vivo (m7GTP-beads)", "setting": "A375 tumors, treatment with both BRAFi and Compound 38, up to 8 hours", "result": "time-dependent disruption of the eIF4F complex"}, {"measurement": "Growth of established tumors (~250 mm^3), combination of BRAFi plus Compound 38", "setting": "PLX4720 chow plus Compound 38 1 mg/kg, 2 times per week intraperitoneally", "result": "largely inhibited"}, {"measurement": "Tumors seen in mice treated with the drug combination", "setting": "treatment started at ~250 mm^3, PLX4720 chow plus Compound 38 1 mg/kg IP", "result": "0/4"}]}
